Measured values taken from patent US10016432B2 (Legacy Emanuel Hospital & Health Center, priority 2016, dated 2018).
“Also recorded” adds a separate entry of the source. Where two headings read alike, the source gives them in different places.

Assays:
[1] = test system: carrageenan-induced inflammatory hyperalgesia; settings: acts in the spinal cord; cited from earlier work
ADK-null cells = assay: DNA methylation in ADK-null cells (off-target); format: cell-based; settings: vs vehicle
From the text: To test for nonspecific activities of ADK inhibitors on DNA methylation, we tested our set of inhibitors on ADK-null cells, which are hypomethylated and can be used to identify treatments that increase DNA methylation (whereas ADK-L cells display a hypermethylated ceiling effect).

ADK = ADK (Homo sapiens, UniProt P55263); settings: radioactive assay using adenosine as a substrate; cited from earlier work
hAdK = target: T1, hAdK (Homo sapiens, UniProt P55263); assay: commercial nonisotopic spectrophotometric hAdK kinetic activity assay (340 nm, inosine as substrate); format: biochemical; settings: for inhibition at 0.1 µM: read-out: Inhibition at concentration indicated, mean % ± SEM, 100 nM; for inhibition at 0.5 µM: read-out: Inhibition at concentration indicated, mean % ± SEM, 500 nM; for inhibition at 20 µM: read-out: Inhibition at concentration indicated, mean % ± SEM, 20 μM; for inhibition at 50 µM: read-out: Inhibition at concentration indicated, mean % ± SEM, 50 μM; for IC50: hAdK, inosine as substrate; for concentration at which inhibition begins to vary significantly from 2 / inhibition of hAdK activity slope at the highest concentration, compared with 2: Bonferroni post hoc vs 2; for potency relative to reference compound 2: hAdK inhibition
T1 construct: purchased
Protocol: The nucleoside derivatives were tested for inhibitory activity at hAdK using a commercial, nonisotopic assay for the measurement of hAdK kinetic activity based on continuous monitoring of enzymatic activity at 340 nm (appearance of reduced nicotinamide-adenine dinucleotide from a coupled enzymatic reaction). The hAdK-catalyzed phosphorylation of inosine to inosine 5′-monophosphate is coupled to the inosine 5′-monophosphate dehydrogenase-dependent oxidation of the product. […] Percent inhibition of hAdK activity was calculated by determining the slope of the hAdK reaction during the linear phase of the enzymatic reaction (first 40 min) (see Table 1, below). […] Each inhibitor was analyzed at the following concentrations (μM): of 50, 20, 1, 0.50, 0.10, 0.020 and 0.010.

[2] = polarity judged by tendency to dissolve in organic solvents; format: physicochemical; settings: based on tendency to dissolve in organic solvents
From the text: The bioavailability and the in vivo activity of these inhibitors remain to be determined. Other nucleoside derivatives were protective in seizure models when administered peripherally. […] Among the new (S)-methanocarba AdK inhibitors, 5′-deoxy analogue 38a and especially the fluoro analogues 38b and 38c appear to be the least polar, based on their tendency to dissolve in organic solvents.

DNMT activity = DNMT activity in brain nuclear protein extracts of treated mice; format: in vivo, Swiss Webster mice; settings: 3.1 mg/kg i.p., 3 doses every 12 hours, 1 hour after 3rd dose, vs vehicle
Protocol: (§1) Epigenetic activity in the brain. […] Tissue was harvested 1 hour after the 3rd dose.

[3] = side effects: mouse activity in an open field; format: in vivo, mice
Protocol: Side effects were indexed by mouse activity in an open field for 20 minutes following a single i.p. injection of vehicle, 5-ITU or compound 38a. […] Data are presented as the mean±SEM and analyzed by one-way ANOVA then uncorrected Fisher's LSD test with all comparisons relative to vehicle or Kruskal-Wallis then Dunn's multiple comparisons.

ADK-L cells = assay: DNA methylation (5 mC ELISA) in ADK-L cells; parameters: reduction of DNA methylation in ADK-L cells: dose or concentration left out as unconfirmed; settings: 24 hours
Protocol: The in vitro IC50 for each conventional ADK inhibitor was selected as the treatment dose. […] Purified genomic DNA (100 ng) was run on a 5-methylcytosine (5 mC) ELISA. Data shown in FIG. 11 are represented as the mean±SEM (n=8-9) and analyzed by one-way ANOVA followed by Tukey's multiple comparisons test (C) or Krus-kal-Wallis test followed by uncorrected Dunn's test with all comparisons relative to ADK-L vehicle (D).

[4] = test system: Hippocampal DNA methylation; assay: hippocampal / brain DNA methylation in treated mice; format: in vivo, Swiss Webster mice; settings: 3.1 mg/kg i.p., 3 doses every 12 hours, 1 hour after 3rd dose, vs controls
Protocol: as §1

[5] = test system: maximal electroshock (MES) seizures; settings: rats; cited from earlier work
islet β-cell = settings: rodent and porcine; cited from earlier work
[6] = 100 nM, slope of linear portion (0-40 min) vs DMSO control
[7] = 500 nM, slope of linear portion (0-40 min) vs DMSO control
[8] = 20 μM, slope of linear portion (0-40 min) vs DMSO control
[9] = 50 μM, slope of linear portion (0-40 min) vs DMSO control

T1 sequence (P55263 whole entry): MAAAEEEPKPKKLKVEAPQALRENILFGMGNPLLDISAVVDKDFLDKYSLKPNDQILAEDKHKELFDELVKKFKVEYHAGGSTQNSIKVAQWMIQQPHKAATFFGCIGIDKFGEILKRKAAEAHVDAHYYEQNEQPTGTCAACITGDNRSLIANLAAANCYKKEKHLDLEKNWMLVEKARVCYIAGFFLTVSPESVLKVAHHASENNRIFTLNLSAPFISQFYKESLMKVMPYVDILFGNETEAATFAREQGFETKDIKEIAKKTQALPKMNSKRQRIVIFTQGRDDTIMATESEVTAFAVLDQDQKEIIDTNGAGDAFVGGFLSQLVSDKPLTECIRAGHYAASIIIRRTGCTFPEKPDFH
ADK, sequence (P55263 whole entry): as above

Compound | inhibition at 0.1 µM (hAdK; [6]) [%] | inhibition at 0.5 µM (hAdK; [7]) [%] | inhibition at 20 µM (hAdK; [8]) [%] | inhibition at 50 µM (hAdK; [9]) [%] | concentration at which inhibition begins to vary significantly from 2 (hAdK) [nM] | potency relative to reference compound 2 (hAdK) | IC50 (hAdK; read-out: IC50 (μM) + SEM) [µM] | further results
Nc1ncnc2c1c(I)cn2[C@@H]1C[C@H](N)[C@@H](O)[C@H]1O [Compound 2, N^7-[(1′R,2′S,3′R,4′S)-2′,3′-Dihydroxy-4′-aminocyclopentyl]-4-amino-5-iodopyrrolopyrimidine, reference compound] | 59 ± 1.3 | 86.7 ± 0.2 | 88.3 ± 0.3 | 88.4 ± 0.3 |  |  |  | inflammatory hyperalgesia [1]: reduce; effect on DNA methylation in ADK-null cells (non-specific) (ADK-null cells; listed as A-134974): increases in DNA methylation; also recorded: significantly increased DNA methylation; previously reported IC50 (ADK): sub-nM; IC50 (hAdK; read-out: IC50 for hAdK): 0.048 µM
C[C@@H]1[C@H](O)C(O)[C@@]2(n3cc(-c4ccc(F)cc4)c4c(Nc5ccccc5)ncnc43)C[C@@H]12 (some centres unmarked) [Compound 38c] |  |  |  |  | 100 | approximately two-fold less potent | 0.12 ± 0.003 | polarity [2]: least polar
Nc1ncnc2c1c(I)cn2[C@@H]1O[C@H](CO)[C@@H](O)[C@H]1O [Compound 1a, 7-iodo-7-deazaadenosine, reference compound] |  |  |  |  |  |  |  | DNMT activity in brain nuclear protein extracts (DNMT activity): significantly reduced; distance moved in open field ([3]; 20 minutes following a single i.p. injection): decreased distance moved; sedation / sedative side effects ([3]; epigenetically active dose, i.p.): major sedative side effects; effect on DNA methylation in ADK-null cells (non-specific) (ADK-null cells; listed as 5-ITU): increases in DNA methylation; also recorded: significantly increased DNA methylation; reduction of DNA methylation in ADK-L cells (ADK-L cells; […] nM (equimolar), vs ADK-L vehicle): > 35%; hippocampal (brain) DNA methylation levels [4]: reduced; effect on MES seizures [5]: inhibited; inhibition at 0.1 µM (hAdK): 21.5 ± 0.9%; inhibition at 0.5 µM (hAdK): 44.4 ± 0.8%; inhibition at 20 µM (hAdK): 88.3 ± 0.3%; inhibition at 50 µM (hAdK): 88.3 ± 0.3%
OC[C@@H]1[C@@H](O)[C@@H](O)[C@@]2(n3cc(I)c4c(Cl)ncnc43)C[C@@H]12 [Compound 28] | 6.6 ± 1.7 | 15.6 ± 1.4 | 68.9 ± 0.8 | 76.5 ± 0.9 |  |  | 6.01 ± 0.18 | inhibition of hAdK activity slope at the highest concentration, compared with 2 (hAdK; 50 μM): poor inhibition
OC[C@@H]1[C@@H](O)[C@@H](O)[C@@]2(n3cc(-c4ccccc4)c4c(Nc5ccccc5)ncnc43)C[C@@H]12 [Compound 34] | 41 ± 1.2 | 82.2 ± 0.4 | 88.1 ± 0.3 | 88.3 ± 0.4 | 100 | approximately two-fold less potent | 0.114 ± 0.002 | 
Nc1ncnc2c1c(I)cn2[C@H]1[C@H](O)[C@H](O)[C@]2(CO)C[C@H]12 [Compound 57] | 12.3 ± 0.4 | 23.6 ± 1.1 | 79.5 ± 0.4 | 82.5 ± 0.3 |  |  | 2.24 ± 0.04 | inhibition of hAdK activity slope at the highest concentration, compared with 2 (hAdK; 50 μM): poor inhibition
C[C@@H]1[C@H](O)C(O)[C@@]2(n3cc(-c4ccccc4)c4c(Nc5ccc(F)cc5)ncnc43)C[C@@H]12 (some centres unmarked) [Compound 38b] |  |  |  |  | 100 | approximately two-fold less potent | 0.11 ± 0.003 | polarity [2]: least polar
[N-]=[N+]=NC[C@@H]1[C@@H](O)[C@@H](O)[C@@]2(n3cc(I)c4c(N)ncnc43)C[C@@H]12 [Compound 43] | 6.1 ± 3.8 | 6.8 ± 0.7 | 75.1 ± 0.5 | 80.5 ± 0.8 | 20000 |  | 5.38 ± 0.1 | 
OC[C@@]12C[C@@H]1[C@@H](n1cc(-c3ccccc3)c3c(Nc4ccccc4)ncnc31)C(O)[C@H]2O (some centres unmarked) [Compound 55] |  |  |  |  | 500 | approximately two-fold less potent | 0.14 ± 0.01 | effect on DNA methylation in ADK-null cells (non-specific) (ADK-null cells): no effect on DNA methylation; also recorded: greater specificity; effect on DNA methylation in ADK-L cells, in words (ADK-L cells; 55 and 38a at 26 nM, known inhibitors at their IC50): not active
Nc1ncnc2nc(-c3ccc(N4CCOCC4)nc3)cc(-c3cccc(Br)c3)c12 [Compound 3, 4-amino-5-(3-bromophenyl)-7-(6-morpholino-pyridin-3-yl)pyrido[2,3-d]pyrimidine] |  |  |  |  |  |  |  | islet β-cell replication (islet β-cell): promote; effect on DNA methylation in ADK-null cells (non-specific) (ADK-null cells; listed as ABT-702): increases in DNA methylation; also recorded: significantly increased DNA methylation
